Experimental data: patent publication EP0066918A1 (THE PROCTER & GAMBLE COMPANY, priority 1981, dated 1982)
Several values for one entry are separate records, joined by “and”; a condition that tells them apart may be missing. Equal values may be shown once.

Experiments:
[1] = test system: aspirin-induced gastric lesions; assay: animal or person; format: in vivo, Male Sprague-Dawley rats; settings: for inhibition in vivo at 125 mg/kg: Rattus norvegicus, po, 2 h, purine derivative dose 125 mg/kg with 125 mg/kg aspirin, read-out: % Reduction in Lesions; for minimization of gastric damage (statement in words): general statement in the description, high dosage = anti-inflammatory:purine ratios from about 1:1.5 to about 1:4; for reduction in lesions / lesion reduction: both 125 mg/kg
Method: For these experiments, the test materials were suspended in 0.5% methyl cellulose aqueous solutions. The pH of the aspirin solution was 2.7 and the pH of the solutions containing the purine materials was adjusted to pH 2.7 using HC1.
Male Sprague-Dawley rats were obtained (approximate weight = 150 grams each) and allowed to acclimate for at least 4 days. During this period the animals were allowed Purina Rat Chow and,tap water ad libitum. The animals were food fasted about 18 hours prior to dosing; during this period water was provided ad libitum.
The rats were dosed by oral gavage using a #8 catheter attached to a 1 cc syringe. The animals were dosed and sacrificed according to a predetermined schedule (the dosing order was determined at random prior to starting each experiment). After dosing, the animals were also water fasted.
The rats were sacrificed, either by C02 inhalation or cervical dislocation, two hours after dosing. Their stomachs were removed intact and placed on plastic-backed absorbent paper. The stomachs were then opened along the greater curvature, the fundus and esophagus were removed and the stomach was spread over a piece of white cardboard, using cotton-tipped applicators to level the rugae. The stomachs were then examined, using a dissecting microscope at 7X magnification, and the length of each lesion present was determined using a calibrated reticule.
In this table, N indicates the number of rats tested for the stated dosage.
In other experiments aspirin and adenosine were dosed at separate times.

[2] = Toxicity (statement only, no method given); settings: no data given
[3] = test system: aspirin-induced gastric damage; assay: Aspirin-induced gastric lesions in rats, adenosine injected i.p. 15 minutes prior to oral aspirin; format: in vivo; settings: 125 mg/kg aspirin (p.o.) alone
Method: Parenteral administration of adenosine was also found to be protective against aspirin-induced gastric damage, as illustrated by the following experiment.
Rats, chosen and prepared as. above, were dosed with i.p. injections of adenosine in 0.9% sterile physiological saline solution, adjusted to pH 7 with IN NaOH. The adenosine solution was injected 15 minutes prior to an oral dose of 125 mg/kg aspirin.

[4] = test system: occult blood loss from the G.I. tract; assay: Occult blood loss from the G.I. tract of rats (Fe labeled ferrous citrate, 24 h feces collection); format: in vivo, male Sprague-Dawley rats; settings: Adenosine 0, oral
Method: In addition to reducing macroscopic lesions in the stomach produced by aspirin ingestion, adenosine was also found to reduce occult blood loss from the G.I. tract of rats. In these experiments, male Sprague-Dawley rats were injected i.v. with […] Fe labeled ferrous citrate. Eight days after injection, feces were collected for 24 hours to establish base line data. The rats were then dosed orally with aspirin or aspirin-adenosine mixtures, as suspensions in 0.5% methylcellulose, and the feces were again collected for 24 hours. The rats were fasted during the 24-hour pre- dose period and for 2 hours after drug dosing.

[5] = test system: Aspirin-induced damage in dogs; assay: Aspirin-induced gastric damage in dogs, endoscopy; format: in vivo, male beagles; settings: avg. dose aspirin 97.8-101 mg/kg, adenosine 100 mg/kg simultaneously, cimetidine 30 mg/kg about 1 hour before
Method: Fasted male beagles were orally dosed with tablets of aspirin, aspirin plus adenosine, or aspirin plus cimetidine. The aspirin and adenosine were dosed simultaneously. The cimetidine was dosed approximately 1 hour before the aspirin; the dose level of cimetidine was 5 times that needed to give a 90% reduction in acid secretion. Approximately 19 hours later, the dogs were again dosed and 4 hours later their stomachs were examined by endoscopy. The incidence of erosions was recorded and the overall gastric damage assessed subjectively, using an arbitrary grading scale.

Row | Structure (SMILES) | inhibition in vivo at 125 mg/kg ([1]; vs aspirin-alone control) [%] | minimization of gastric damage (statement in words) [1] | further results
1 | OC[C@H]1O[C@@H](n2cnc3c2ncn2ccnc32)[C@H](O)[C@@H]1O [1,N^6-ethenoadenosine] | 50 | work only at relatively high dosage levels | –
2 | Cn1cnc2c(ncn2[C@@H]2O[C@H](CO)[C@@H](O)[C@H]2O)c1=N [1-methyl adenosine] | – | – | % Reduction in Lesions ([1]; purine derivative dose 25 mg/kg with 125 mg/kg aspirin, vs aspirin-alone control): 16%
3 | CC1(C)O[C@@H]2[C@H](O1)[C@@H](CO)O[C@H]2n1cnc2c(N)ncnc21 [2',3'-isopropylidine adenosine] | 95 | – | –
4 | Nc1ncnc2c1ncn2[C@H]1C[C@H](O)[C@@H](COP(=O)(O)O)O1 [2'-deoxy-adenosine-5'-mono-phosphate] | 16 | – | –
5 | Nc1ncnc2c1ncn2[C@H]1C[C@H](O)[C@@H](CO)O1 [2'-deoxyadenosine] | 64 | – | –
6 | Nc1ncnc2c1ncn2[C@@H]1O[C@H](CO)C[C@H]1O [3'-deoxyadenosine] | -47 | – | –
7 | CSC[C@H]1O[C@@H](n2cnc3c(N)ncnc32)[C@H](O)[C@@H]1O [5'-deoxy-5'-methylthioadenosine] | -102 | – | –
8 | Nc1ncnc2c1nnn2[C@@H]1O[C@H](CO)[C@@H](O)[C@H]1O [8-azaadenosine] | 60 | – | –
9 | Nc1ncnc2c1nc(Br)n2[C@@H]1O[C@H](CO)[C@@H](O)[C@H]1O [8-bromoadenosine] | 76 | – | –
10 | Nc1ncnc2nc[nH]c12 [Adenine] | 94 | does work to minimize gastrointestinal damage | toxicity limits (statement in words) [2]: does not fall within the necessary toxicity limits
11 | Nc1ncnc2c1ncn2[C@@H]1O[C@H](COP(=O)(O)OP(=O)(O)O)[C@@H](O)[C@H]1O [Adenosine-5'-diphosphate (ADP), adenosine-5'-diphosphate] | 50 | work only at relatively high dosage levels | –
12 | Nc1ncnc2c1ncn2[C@@H]1O[C@H](COP(=O)(O)OP(=O)(O)OP(=O)(O)O)[C@@H](O)[C@H]1O [Adenosine-5'-triphosphonate (ATP), adenosine-5'-triphosphate] | – | work only at relatively high dosage levels | –
13 | Nc1c2ncn([C@@H]3O[C@H](CO)[C@@H](O)[C@H]3O)c2nc[n+]1[O-] [Adenosine-N^1-oxide, adenosine-N^1-oxide] | 75 | – | –
14 | NC(=O)NC1NC(=O)NC1=O (stereo not drawn) [Allantoin] | 30 | – | –
15 | CC(=O)Oc1ccccc1C(=O)O [Aspirin, acetylsalicylic acid] | – | – | Lesion Length (mm) ± SEM ([1]; 125 mg/kg aspirin alone (control), oral, 2 h after dosing): 30.4 ±3.1 mm; Average Lesion Length (mm) ±SEM [3]: 36.1 ±10.8 mm; Blood Loss in 24 hrs. (µl) + S.D. ([4]; Aspirin 125 mg/kg): 158 ± 46 µL; Blood Loss in 24 hrs. (µl) + S.D. ([4]; Aspirin 300 mg/kg): 198 ± 131 µL and 224 ± 98 µL; Avg. Damage Grade ([5]; arbitrary subjective grading scale): 16; Avg. In-cidence of Erosions ([5]; oral tablets, two doses about 19 h apart, endoscopy 4 h after second): 80%
16 | Nc1nc2c(ncn2[C@@H]2O[C@H](CO)[C@@H](O)[C@H]2O)c(=O)[nH]1 [Guanosine] | 41 | not useful | –
17 | O=c1[nH]cnc2nc[nH]c12 [Hypoxanthine] | 13 | – | –
18 | OC[C@H]1O[C@@H](n2cnc3c(O)ncnc32)[C@H](O)[C@@H]1O [Inosine] | 18 | – | –
19 | Nc1ncnc2c1ncn2[C@@H]1O[C@H](CO)[C@@H](O)[C@H]1O [adenosine] | – | – | reduction in lesions ([1]; adenosine dosed 10 minutes after aspirin): < 10%; lesion reduction ([1]; adenosine dosed 10 minutes prior to aspirin): about 60%; lesion reduction ([1]; adenosine dosed 30 minutes prior to aspirin): about 45%; reduction in lesions ([1]; adenosine dosed simultaneously with aspirin): about 90%
20 | Nc1nc2nc[nH]c2c(=O)[nH]1 [guanine] | – | not useful | –
